From patent US5084449A, “Anti-bacterial compositions comprising a substituted bis-(4-aminophenyl)-sulfone and a dihydro-folic acid reductase” (Dr. Karl Thomae GmbH, priority 1984, dated 1992)
pIC50: −log10 of the molar value.

Test system: 7,8-dihydropteroic acid-synthetase
Assay: inhibiting effect on 7,8-dihydropteroic acid synthesis in cell-free enzyme extract of plasmodia (HPLC)
Assay type: biochemical
Details: concentration giving 50% reduction of 7,8-dihydropteroic acid synthesis; cell-free enzyme extract of Plasmodium berghei; incubation 4 hours; HPLC/UV; read-out: i50
Procedure: M=4'-Amino-2-methyl-4-propylamino-diphenylsulfone were tested for their biological activity in cell-free enzyme extract of Plasmodiumberghei as follows.
Plasmodia are isolated from mouse blood infected with Plasmodium berghei in accordance with the following reference (Heidrich, H. -G. et al., Z. Parasitenkd. 59: 151 (1979). The plasmodia were opened by ultrasound. Proteins with […] acid synthetase activity are concentrated by gel filtration.
The inhibiting effect on 7,8-dihydropteroic acid synthesis of plasmodia is determined as follows:
Under optimum reaction conditions, i.e. Vmax for the reaction which is to be inhibited, the concentration of inhibitor in the new compounds resulting in a 50% reduction in the enzyme synthesis performance is determined. For this purpose the quantity of 7,8-dihydropteroic acid synthesised from the enzyme extract is determined by means of high performance liquid chromatography (HPLC) using a UV detector after an incubation period of 4 hours. It was established that the synthesis of 7,8-dihydropteroic acid proceeded in a linear manner during this period.
The i50 values obtained by this method for a selection of the compounds claimed and those of the comparison preparations bis (4-aminophenyl)sulfone (Dapsone®, DDS) and N^1 -(5,6-dimethoxy-4-pyrimidinyl)-sulfanilamide (Fanasil®) are given in the following Table: […]

Point of comparison: `Nc1ccc(S(=O)(=O)c2ccc(N)cc2)cc1` [Dapsone ®, bis (4-aminophenyl)sulfone, reference compound], pIC50 4.91. Against it:
- COc1ncnc(NS(=O)(=O)c2ccc(N)cc2)c1OC [Fanasil ®, N^1-(5,6-dimethoxy-4-pyrimidinyl)-sulfanilamide, reference compound] — 1.21 log units lower, 3.70
- CCNc1ccc(S(=O)(=O)c2ccc(N)cc2)c(Cl)c1 [Substance A, 4-Ethylamino-4'-amino-2-chloro-diphenylsulfone] — 0.77 log units higher, 5.68
- CC(C)Nc1ccc(S(=O)(=O)c2ccc(N)cc2)c(Cl)c1 [Substance B, 4'-Amino-2-chloro-4-isopropylamino-diphenylsulfone] — 0.66 log units higher, 5.57
- CCNc1ccc(S(=O)(=O)c2ccc(N)cc2)c(C)c1 [Substance C, 4-Ethylamino-4'-amino-2-methyl-diphenylsulfone] — 0.67 log units higher, 5.58
- CCNc1ccc(S(=O)(=O)c2ccc(N)cc2)c(C(F)(F)F)c1 [Substance D, 4-Ethylamino-4'-amino-2-trifluoromethyl-diphenyl-sulfone] — 0.32 log units higher, 5.23
- Nc1ccc(S(=O)(=O)c2ccc(N)cc2CO)cc1 [Substance E, 4,4'-Diamino-2-hydroxymethyl-diphenylsulfone] — 0.40 log units higher, 5.31
- CC(O)c1cc(N)ccc1S(=O)(=O)c1ccc(N)cc1 (stereo not shown) [Substance F, 4,4'-Diamino-2-(1-hydroxyethyl)-diphenylsulfone] — within 0.2 log units, 4.98
- CN(C)c1cc(N)ccc1S(=O)(=O)c1ccc(N)cc1 [Substance G, 4,4'-Diamino-2-(N,N-dimethylamino)-diphenylsulfone] — within 0.2 log units, 4.89
- CNc1cc(N)ccc1S(=O)(=O)c1ccc(N)cc1 [Substance H, 4,4'-Diamino-2-(N-methylamino)-diphenylsulfone] — 0.48 log units higher, 5.39
- N#Cc1cc(N)ccc1S(=O)(=O)c1ccc(N)cc1 [Substance I, 4,4'-Diamino-2-cyano-diphenylsulfone] — within 0.2 log units, 4.90
- CC(=O)c1cc(N)ccc1S(=O)(=O)c1ccc(N)cc1 [Substance K, 4,4'-Diamino-2-methylcarbonyl-diphenylsulfone] — within 0.2 log units, 4.89
- CNc1ccc(S(=O)(=O)c2ccc(N)cc2)c(C)c1 [Substance L, 4'-Amino-2-methyl-4-methylamino-diphenylsulfone] — 0.62 log units higher, 5.53
- CCCNc1ccc(S(=O)(=O)c2ccc(N)cc2)c(C)c1 [Substance M, 4'-Amino-2-methyl-4-propylamino-diphenylsulfone] — 0.70 log units higher, 5.61

Test system: not listed separately
Assay: methemoglobin formation after oral administration to cats
Assay type: in vivo
Details: 200 mg/kg by oral route
Text: Moreover, in contrast to Dapsone®, the new compounds are well tolerated and in particular show a very low methemoglobin formulation.

With `N#Cc1cc(N)ccc1S(=O)(=O)c1ccc(N)cc1` [Substance I, 4,4'-Diamino-2-cyano-diphenylsulfone] the methemoglobin formulation was “no methemoglobin formulation is detected”.
With `CCCNc1ccc(S(=O)(=O)c2ccc(N)cc2)c(C)c1` [Substance M, 4'-Amino-2-methyl-4-propylamino-diphenylsulfone] the methemoglobin formulation was “no methemoglobin formulation is detected”.
